Measured values from patent US8410170B2, “Use of isothiocyanates compounds in treating prostatic diseases and skin cancer” (Wuxi JC Pharmaceutical Technology Co., Ltd., priority 2005, dated 2013).

Columns and labels:
[1] = Stability testing of isothiocyanate compositions (60° C., HPLC); type: physicochemical; conditions: sealed vials, day 10, HPLC
Procedure: Suitable amount of API (isothiocyanates, as control) and compositions were placed into clean vials, and sealed with rubber stoppers plus aluminum caps. All samples were stored at 60° C., and then assayed by a validated HPLC method at time day 0, day 5, and day 10.

[2] = tested on: non-bacterial prostatitis; experiment: Therapeutic effects on non-bacterial prostatitis (Xiaozhiling injection into prostate); type: in vivo, SD rats; conditions: for Average of Body Weight / Average Volume of Prostate / Average Weight of Prostate / Inhibition of Organ-coefficient / Organ Coefficient: 5 weeks; for Bleeding: no. of animals with score 0 / Bleeding: no. of animals with score + / Bleeding: no. of animals with score ++ / Bleeding: no. of animals with score +++ / Chronic Inflammatory Infiltration: no. of animals with score 0 / Chronic Inflammatory Infiltration: no. of animals with score + / Chronic Inflammatory Infiltration: no. of animals with score ++ / Chronic Inflammatory Infiltration: no. of animals with score +++ / Congestion: no. of animals with score 0 / Congestion: no. of animals with score + / Congestion: no. of animals with score ++ / Congestion: no. of animals with score +++ / Edema: no. of animals with score 0 / Edema: no. of animals with score + / Edema: no. of animals with score ++ / Edema: no. of animals with score +++ / Fibrous Exudation: no. of animals with score 0 / Fibrous Exudation: no. of animals with score + / Fibrous Exudation: no. of animals with score ++ / Fibrous Exudation: no. of animals with score +++ / Histopathological score of prostatitis, Overall Average X ± SD / Hyperblastosis: no. of animals with score 0 / Hyperblastosis: no. of animals with score + / Hyperblastosis: no. of animals with score ++ / Hyperblastosis: no. of animals with score +++ / Inflammatory Infiltration: no. of animals with score 0 / Inflammatory Infiltration: no. of animals with score + / Inflammatory Infiltration: no. of animals with score ++ / Inflammatory Infiltration: no. of animals with score +++: 9 animals; for urine, 1 h Period / urine, 2 h Period / urine, 3 h Period: last dosing day
Procedure: Fifty-five male SD rats were randomly divided into 6 groups, 9 each, except the negative control group for which 10 animals were used. All animals from group 1 to 6 were anesthetized by injection of ketamine under sterile conditions and incised around 1.5 cm with a sterilized surgery scalpel at middle of abdomen. Animals in Group 1 were injected penicillin to prevent infection, and given distill water, 10 ml/kg, once a day, 5 times a week for 5 weeks. Groups from 2 to 6 injected 25% Xiaozhiling into left and right lobes of prostate, 0.1 ml for each lobe and sew the muscle and skin with #1 silk thread. The animals were then given penicillin to prevent infectious. Group 2 was served as negative control group in which animals were treated with distill water by gavage 24 hrs after the Xiaozhiling injection, once a day, 5 times a week for 5 weeks. Group 3 was served as positive control group in which animals were treated with GENURIN by gavage 24 hrs after the Xiaozhiling injection at dose of 60 mg/kg, once a day, 5 times a week (escaping weekend) for 5 weeks. […] On the last dosing day, urine samples from different groups that covered periods of 1, 2 and 3 hrs were collected.
Twenty-four hrs after the last dose, the animals were euthanized and weighed. Volume and weight of prostate were measured. The averages of the prostate weight/volume and organ coefficient (average weight of prostate/average of body weight) were calculated, and statistical analysis performed (t test).
Prostate tissues of animals from different groups were embedded with paraffin. The tissue sections were stained with H&E for histpathological examination by an anatomical pathologist.

SMILES: S=C=NCCc1ccccc1 [PEITC, phenethyl isothiocyanate]
- API % under 60° C. for 10 days [1]: 95.2%
- Average of Body Weight ([2]; PEITC 1 mg/kg gavage (Example 13-11)): 377 ± 39.1 g
- Average Volume of Prostate ([2]; PEITC 1 mg/kg gavage): 0.78 ± 0.16 cm^3
- Average Weight of Prostate ([2]; PEITC 1 mg/kg gavage): 0.7 ± 0.15 g
- Inhibition of Organ-coefficient ([2]; PEITC 1 mg/kg gavage): 28.46%
- Organ Coefficient ([2]; PEITC 1 mg/kg gavage): 0.186 ± 0.03 %
- Bleeding: no. of animals with score 0 ([2]; PEITC 1 mg/kg): 7
- Bleeding: no. of animals with score + ([2]; PEITC 1 mg/kg): 2
- Bleeding: no. of animals with score ++ ([2]; PEITC 1 mg/kg): 0
- Bleeding: no. of animals with score +++ ([2]; PEITC 1 mg/kg): 0
- Chronic Inflammatory Infiltration: no. of animals with score 0 ([2]; PEITC 1 mg/kg): 9
- Chronic Inflammatory Infiltration: no. of animals with score + ([2]; PEITC 1 mg/kg): 0
- Chronic Inflammatory Infiltration: no. of animals with score ++ ([2]; PEITC 1 mg/kg): 0
- Chronic Inflammatory Infiltration: no. of animals with score +++ ([2]; PEITC 1 mg/kg): 0
- Congestion: no. of animals with score 0 ([2]; PEITC 1 mg/kg): 3
- Congestion: no. of animals with score + ([2]; PEITC 1 mg/kg): 6
- Congestion: no. of animals with score ++ ([2]; PEITC 1 mg/kg): 0
- Congestion: no. of animals with score +++ ([2]; PEITC 1 mg/kg): 0
- Edema: no. of animals with score 0 ([2]; PEITC 1 mg/kg): 3
- Edema: no. of animals with score + ([2]; PEITC 1 mg/kg): 6
- Edema: no. of animals with score ++ ([2]; PEITC 1 mg/kg): 0
- Edema: no. of animals with score +++ ([2]; PEITC 1 mg/kg): 0
- Fibrous Exudation: no. of animals with score 0 ([2]; PEITC 1 mg/kg): 5
- Fibrous Exudation: no. of animals with score + ([2]; PEITC 1 mg/kg): 4
- Fibrous Exudation: no. of animals with score ++ ([2]; PEITC 1 mg/kg): 0
- Fibrous Exudation: no. of animals with score +++ ([2]; PEITC 1 mg/kg): 0
- Histopathological score of prostatitis, Overall Average X ± SD ([2]; PEITC 1 mg/kg): 1.83 ± 1.06
- Hyperblastosis: no. of animals with score 0 ([2]; PEITC 1 mg/kg): 7
- Hyperblastosis: no. of animals with score + ([2]; PEITC 1 mg/kg): 2
- Hyperblastosis: no. of animals with score ++ ([2]; PEITC 1 mg/kg): 0
- Hyperblastosis: no. of animals with score +++ ([2]; PEITC 1 mg/kg): 0
- Inflammatory Infiltration: no. of animals with score 0 ([2]; PEITC 1 mg/kg): 9
- Inflammatory Infiltration: no. of animals with score + ([2]; PEITC 1 mg/kg): 0
- Inflammatory Infiltration: no. of animals with score ++ ([2]; PEITC 1 mg/kg): 0
- Inflammatory Infiltration: no. of animals with score +++ ([2]; PEITC 1 mg/kg): 0
- congestion, edema, fibroid and leukocyte infiltration versus untreated prostatitis animals (slide) ([2]; PEITC 1 mg/kg, FIG. 7.5): less severe
- urine, 1 h Period ([2]; PEITC 1 mg/kg): 5.5 ± 1.0 mL
- urine, 2 h Period ([2]; PEITC 1 mg/kg): 7.0 ± 0.7 mL
- urine, 3 h Period ([2]; PEITC 1 mg/kg): 7.9 ± 1.0 mL
- Average of Body Weight ([2]; PEITC 2 mg/kg gavage (Example 13-11)): 360 ± 24.8 g
- Average Volume of Prostate ([2]; PEITC 2 mg/kg gavage): 0.82 ± 0.13 cm^3
- Average Weight of Prostate ([2]; PEITC 2 mg/kg gavage): 0.70 ± 0.12 g
- Inhibition of Organ-coefficient ([2]; PEITC 2 mg/kg gavage): 27.69%
- Organ Coefficient ([2]; PEITC 2 mg/kg gavage): 0.188 ± 0.03 %
- Bleeding: no. of animals with score 0 ([2]; PEITC 2 mg/kg): 8
- Bleeding: no. of animals with score + ([2]; PEITC 2 mg/kg): 1
- Bleeding: no. of animals with score ++ ([2]; PEITC 2 mg/kg): 0
- Bleeding: no. of animals with score +++ ([2]; PEITC 2 mg/kg): 0
- Chronic Inflammatory Infiltration: no. of animals with score 0 ([2]; PEITC 2 mg/kg): 8
- Chronic Inflammatory Infiltration: no. of animals with score + ([2]; PEITC 2 mg/kg): 0
- Chronic Inflammatory Infiltration: no. of animals with score ++ ([2]; PEITC 2 mg/kg): 1
- Chronic Inflammatory Infiltration: no. of animals with score +++ ([2]; PEITC 2 mg/kg): 0
- Congestion: no. of animals with score 0 ([2]; PEITC 2 mg/kg): 4
- Congestion: no. of animals with score + ([2]; PEITC 2 mg/kg): 5
- Congestion: no. of animals with score ++ ([2]; PEITC 2 mg/kg): 0
- Congestion: no. of animals with score +++ ([2]; PEITC 2 mg/kg): 0
- Edema: no. of animals with score 0 ([2]; PEITC 2 mg/kg): 6
- Edema: no. of animals with score + ([2]; PEITC 2 mg/kg): 3
- Edema: no. of animals with score ++ ([2]; PEITC 2 mg/kg): 0
- Edema: no. of animals with score +++ ([2]; PEITC 2 mg/kg): 0
- Fibrous Exudation: no. of animals with score 0 ([2]; PEITC 2 mg/kg): 5
- Fibrous Exudation: no. of animals with score + ([2]; PEITC 2 mg/kg): 4
- Fibrous Exudation: no. of animals with score ++ ([2]; PEITC 2 mg/kg): 0
- Fibrous Exudation: no. of animals with score +++ ([2]; PEITC 2 mg/kg): 0
- Histopathological score of prostatitis, Overall Average X ± SD ([2]; PEITC 2 mg/kg): 2.16 ± 1.52
- Hyperblastosis: no. of animals with score 0 ([2]; PEITC 2 mg/kg): 7
- Hyperblastosis: no. of animals with score + ([2]; PEITC 2 mg/kg): 2
- Hyperblastosis: no. of animals with score ++ ([2]; PEITC 2 mg/kg): 0
- Hyperblastosis: no. of animals with score +++ ([2]; PEITC 2 mg/kg): 0
- Inflammatory Infiltration: no. of animals with score 0 ([2]; PEITC 2 mg/kg): 6
- Inflammatory Infiltration: no. of animals with score + ([2]; PEITC 2 mg/kg): 3
- Inflammatory Infiltration: no. of animals with score ++ ([2]; PEITC 2 mg/kg): 0
- Inflammatory Infiltration: no. of animals with score +++ ([2]; PEITC 2 mg/kg): 0
- urine, 1 h Period ([2]; PEITC 2 mg/kg): 6.6 ± 2.1 mL
- urine, 2 h Period ([2]; PEITC 2 mg/kg): 8.7 ± 1.7 mL
- urine, 3 h Period ([2]; PEITC 2 mg/kg): 9.2 ± 2.7 mL
- Average of Body Weight ([2]; PEITC 4 mg/kg gavage (Example 13-11)): 370 ± 24.8 g
- Average Volume of Prostate ([2]; PEITC 4 mg/kg gavage): 0.78 ± 0.10 cm^3
- Average Weight of Prostate ([2]; PEITC 4 mg/kg gavage): 0.72 ± 0.16 g
- Inhibition of Organ-coefficient ([2]; PEITC 4 mg/kg gavage): 26.15%
- Organ Coefficient ([2]; PEITC 4 mg/kg gavage): 0.192 ± 0.03 %
- Bleeding: no. of animals with score 0 ([2]; PEITC 4 mg/kg): 6
- Bleeding: no. of animals with score + ([2]; PEITC 4 mg/kg): 3
- Bleeding: no. of animals with score ++ ([2]; PEITC 4 mg/kg): 0
- Bleeding: no. of animals with score +++ ([2]; PEITC 4 mg/kg): 0
- Chronic Inflammatory Infiltration: no. of animals with score 0 ([2]; PEITC 4 mg/kg): 9
- Chronic Inflammatory Infiltration: no. of animals with score + ([2]; PEITC 4 mg/kg): 0
- Chronic Inflammatory Infiltration: no. of animals with score ++ ([2]; PEITC 4 mg/kg): 0
- Chronic Inflammatory Infiltration: no. of animals with score +++ ([2]; PEITC 4 mg/kg): 0
- Congestion: no. of animals with score 0 ([2]; PEITC 4 mg/kg): 7
- Congestion: no. of animals with score + ([2]; PEITC 4 mg/kg): 2
- Congestion: no. of animals with score ++ ([2]; PEITC 4 mg/kg): 0
- Congestion: no. of animals with score +++ ([2]; PEITC 4 mg/kg): 0
- Edema: no. of animals with score 0 ([2]; PEITC 4 mg/kg): 5
- Edema: no. of animals with score + ([2]; PEITC 4 mg/kg): 4
- Edema: no. of animals with score ++ ([2]; PEITC 4 mg/kg): 0
- Edema: no. of animals with score +++ ([2]; PEITC 4 mg/kg): 0
- Fibrous Exudation: no. of animals with score 0 ([2]; PEITC 4 mg/kg): 4
- Fibrous Exudation: no. of animals with score + ([2]; PEITC 4 mg/kg): 4
- Fibrous Exudation: no. of animals with score ++ ([2]; PEITC 4 mg/kg): 1
- Fibrous Exudation: no. of animals with score +++ ([2]; PEITC 4 mg/kg): 0
- Histopathological score of prostatitis, Overall Average X ± SD ([2]; PEITC 4 mg/kg): 1.72 ± 0.79
- Hyperblastosis: no. of animals with score 0 ([2]; PEITC 4 mg/kg): 9
- Hyperblastosis: no. of animals with score + ([2]; PEITC 4 mg/kg): 0
- Hyperblastosis: no. of animals with score ++ ([2]; PEITC 4 mg/kg): 0
- Hyperblastosis: no. of animals with score +++ ([2]; PEITC 4 mg/kg): 0
- Inflammatory Infiltration: no. of animals with score 0 ([2]; PEITC 4 mg/kg): 7
- Inflammatory Infiltration: no. of animals with score + ([2]; PEITC 4 mg/kg): 2
- Inflammatory Infiltration: no. of animals with score ++ ([2]; PEITC 4 mg/kg): 0
- Inflammatory Infiltration: no. of animals with score +++ ([2]; PEITC 4 mg/kg): 0
- histopathological scores versus untreated prostatitis animals (slide) ([2]; PEITC 4 mg/kg, FIG. 7.3): less severe
- urine, 1 h Period ([2]; PEITC 4 mg/kg): 5.7 ± 2.2 mL
- urine, 2 h Period ([2]; PEITC 4 mg/kg): 9.4 ± 1.5 mL
- urine, 3 h Period ([2]; PEITC 4 mg/kg): 10.4 ± 1.9 mL
